Reference: PubChem BioAssay (NCI)
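48-hour exposure; five concentrations; linearly interpolated endpoints. Here, GI50 denotes the concentration required for 50% inhibition of growth. TGI denotes the concentration required for complete inhibition of growth.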

Legend:
Assay in all cases: growth of human tumour cells (NCI), 48 h
MALME-3M melanoma = tested on: MALME-3M melanoma
SW-620 colon = tested on: SW-620 colon
SNB-19 CNS = tested on: SNB-19 CNS
SN12C renal = tested on: SN12C renal
BT-549 breast = tested on: BT-549 breast
SK-MEL-2 melanoma = tested on: SK-MEL-2 melanoma
SNB-75 CNS = tested on: SNB-75 CNS
MCF7 breast = tested on: MCF7 breast
MOLT-4 leukemia = tested on: MOLT-4 leukemia
HT29 colon = tested on: HT29 colon

SMILES | TGI (MALME-3M melanoma) [µM] | TGI (SW-620 colon) [µM] | TGI (SNB-19 CNS) [µM] | TGI (SN12C renal) [µM] | TGI (BT-549 breast) [µM] | TGI (SK-MEL-2 melanoma) [µM] | TGI (SNB-75 CNS) [µM] | TGI (MCF7 breast) [µM] | TGI (MOLT-4 leukemia) [µM] | TGI (HT29 colon) [µM] | GI50 (MALME-3M melanoma) [µM] | GI50 (SW-620 colon) [µM] | GI50 (SNB-19 CNS) [µM] | GI50 (SN12C renal) [µM] | GI50 (BT-549 breast) [µM] | GI50 (SK-MEL-2 melanoma) [µM] | GI50 (SNB-75 CNS) [µM] | GI50 (MCF7 breast) [µM] | GI50 (MOLT-4 leukemia) [µM] | GI50 (HT29 colon) [µM]
NCC(Cc1ccccc1)P(=O)(O)O (stereo not drawn) | > 100 | > 100 | > 100 | > 100 | > 100 | > 100 | > 100 | > 100 | > 100 | > 100 |  |  |  |  |  |  |  |  |  | 
CCOC(=O)C1=C(C)N(Cc2ccc(Cl)cc2Cl)[C@]2(C#N)C(O)=C(Cl)C(Cl)=C(O)[C@]12C#N | > 100 | 82.9 | > 100 | > 100 | > 100 | > 100 | 86.4 | > 100 | 61.6 | > 100 | > 100 | 31.8 | 92.8 | 73.9 | 21.1 | > 100 | 32.2 | 39.3 | 27.9 | > 100
O=c1c2ccccc2n2cnc3ccc(NCCNCCO)c1c32 | 9.3 | 5.11 | 22.6 | 17 | 16.6 | 8.8 | 9.51 | 9.62 | 10.3 | 6.84 |  |  |  |  |  |  |  |  |  | 
Cc1cc(-c2ccco2)cc(C)c1/C=C/c1cncc(-c2nn[nH]n2)c1 | > 25 | > 25 | > 25 | > 25 | > 25 | > 25 | > 25 | > 25 | > 25 | > 25 | > 25 | > 25 | > 25 | > 25 | > 25 | > 25 | > 25 | > 25 | > 25 | > 25
O=C(Nc1nc2c(s1)CCc1c-2c(Br)n(Cc2ccccc2)c1Br)c1ccccc1 | 10.2 | > 100 | > 100 | > 100 | 8.01 | 19.6 | 4.74 | > 100 | 64.4 | > 100 | 2.57 | 21.4 | 7.41 | 10 | 2.53 | 3.47 | 1.77 | 5.38 | 22.7 | 4.71
COc1cc2c3c(n(CCCN4CCSCC4)c(=O)c2cc1OC)-c1cc2c(cc1C3=O)OCO2 | > 100 | > 100 | > 100 |  | > 100 | 36.4 | 27.5 | > 100 | 13.4 | > 100 | 67.5 | 96.8 | 53.8 |  | 56.7 | 16.8 | 12.9 | 61.4 | 0.632 | > 100
O=C(Nc1ccc(Br)cc1)Nc1cccc(Br)c1 | > 100 | > 100 | > 100 | > 100 | > 100 | > 100 | 63 | > 100 | > 100 |  | 8.69 | 5.54 | 11.1 | 71.8 | > 100 | 5.7 | 10.2 | 3.2 | 5.38 | 
O=C(CN(/C=C/C(=O)C(F)(F)F)c1ccccc1)c1ccc(F)cc1 | 74.1 | 42.9 | > 100 | 54.9 | > 100 | 70.1 |  | 59.3 | 79.8 | > 100 | 26.7 | 19.9 | 46 | 21.2 | 31.5 | 26.3 |  | 23.2 | 23.6 | 38.9
O=S(=O)(NCCCNc1nccc(-c2c(-c3cccc(F)c3)nc3occn23)n1)c1cccc2ccccc12 | > 100 | > 100 | > 100 | > 100 | > 100 | > 100 | > 100 | > 100 | > 100 |  | 5.24 | 6.91 | 9.41 | 3.44 | 4.44 | 6.99 | 3.38 | 4.07 | 3.54 | 
CCN(CC)CCCNc1c2ccc(Cl)cc2nc2ccc(OC)cc12 | 3.38 | 2.36 | 4.57 | 3.69 | 3.63 | 3.31 |  | 3.16 | 2.91 | 1.56 | 1.6 | 0.0401 | 0.0587 | 0.0575 | 1.78 | 1.69 |  | 0.0377 | 0.0338 | 0.033
COC(=O)[C@]1(C)CCCC2(C)C3=C(CCC21)CC1(CC3)SCCS1 (stereo partly drawn) | > 10 | > 10 | > 10 | > 10 | > 10 |  | > 10 | > 10 | > 10 | > 10 |  |  |  |  |  |  |  |  |  | 
CN1CC[C@]23c4c5ccc(O)c4OC2c2[nH]ncc2C[C@H]3[C@H]1C5 (stereo partly drawn) | > 100 |  | > 100 | > 100 | > 100 | > 100 | > 100 | > 100 | > 100 | > 100 |  |  |  |  |  |  |  |  |  | 
